# Measurements as given in patent US12723236B2, “Method for producing cell aggregate” (TOPPAN Holdings Inc., priority 2021, dated 2026).
# Entries after “also recorded” stand apart in the source; their conditions may differ.
# Legend:
# PXB cells, SEC and LX2 = experiment: Aggregation behavior of cells treated with heparin/collagen (live-cell confocal observation); format: cell-based, Human; details: 0.2 mg/mL collagen, 0.5 mg/mL heparin in 100 mM Tris-HCl; 96-well microplate; 2 hours after seeding; FIG. 2
# Experimental: PXB cells, SEC and LX2 were used as cells.
# The collected cells were mixed at the following ratios and cell amounts to obtain a cell mixture. • total amount of cells: 300,000 cells • cell proportions in tissue: • PXB cells: 65%·SEC: 25%·LX2: 10% Step 1-4
# (§1) 100 μL of each of the following solutions was added to the cell mixture at room temperature, suspended until the cells were no longer visible, and then centrifuged (400 g×2 min) to obtain a viscous component. Here, regardless of the presence of heparin and collagen, it was confirmed in advance that the pH of each solution was approximately around 7.4. • (1) 100 mM Tris-HCl buffer solution • (2) collagen-containing solution (0.2 mg/mL collagen in 100 mM Tris-HCl buffer solution*) • (3) collagen and heparin-containing solution (0.2 mg/mL collagen and 0.5 mg/mL heparin in 100 mM Tris-HCl buffer solution) • *Since collagen quickly gelled in a neutral solution at room temperature, equal amounts of a 0.4 mg/mL collagen in 5 mM acetate buffer solution and a 200 mM Tris-HCl buffer solution prepared in advance were mixed in each of the above solutions and used. Step 1-5
# After the supernatant was removed from the solution containing the viscous component, HCM was added so that the final volume of the solution was a solution amount of 100 μL to obtain a cell suspension. […]
# MRP2 = MRP2 immunostaining and image analysis of hepatotoxicity model formed in fibrin gel; format: cell-based, Human; details: 3 days of culture; for expression of MRP2 (fluorescence): 0.2 mg/mL collagen and/or 0.5 mg/mL heparin
# Experimental: Regarding hepatotoxicity models treated with each solution, it was evaluated whether there was a difference in the state of adhesion between hepatocytes.
# A cell mixture with the following proportions and cell amounts was obtained in the same procedures as Steps 1-1 to 1-3 in Test Example 1. • total amount of cells: 300,000 cells • cell proportions in tissue: • PXB cell: 65%·SEC: 25%·LX2: 10% Step 2-2
# After the supernatant was removed from the solution containing the viscous component obtained in Step 2-2, a 20 U/mL thrombin solution (solvent: HCM) was added so that the final volume of the solution was a solution amount of “the number of wells to be seeded”×2 μL to obtain a cell suspension.
# 2 μL of a 10 mg/mL fibrinogen solution was seeded on a 48-well microplate to form droplets and each cell suspension obtained in Step 2-3 was then added into the droplets, and then left in an incubator for 1 hour to form a fibrin gel.
# 0.5 mL of HCM (containing Endothelial Cell Growth Supplement) was added to each well in which the fibrin gel was formed.
# After HCM was added, culture was continued for 3 days in each well in which the fibrin gel was formed.
# After 3 days of culture, the 48-well microplate was removed from the incubator, the medium was removed, washing with PBS was performed, and 300 μL of a 4% paraformaldehyde·phosphate buffer solution (hereinafter referred to as PFA) was then added to each well to fix a hepatotoxicity model (3D model). Then, the PFA was washed thoroughly and removed.
# 100 μL of a 0.2 (v/v) % TRITON/1 (w/v) % BSA PBS solution (hereinafter referred to as a BSA solution) was added to each well, and left at room temperature for 2 hours.
# Anti-MRP2 antibodies were diluted 100-fold with a BSA solution to obtain a primary antibody solution. 100 μL of the primary antibody solution was added to each well and left at 4° C. for 24 hours. Then, the primary antibody solution was washed thoroughly and removed.
# Secondary antibodies were diluted 200-fold with a BSA solution to obtain a secondary antibody solution. 100 μL of the secondary antibody solution was added to each well, shielded from light and left at room temperature for 1 hour. Then, the secondary antibody solution was washed thoroughly and removed, and 100 μL of PBS was added to each well.
# Images were captured under a confocal microscope. […]
# The intensities of the captured images were summed to obtain a fluorescence observation image of each hepatotoxicity model (3D model). […]
# [1] = Gelation of neutral collagen solution at room temperature; format: physicochemical; details: pH 7.4, room temperature
# Experimental: as §1
# Since collagen quickly gelled in a neutral solution at room temperature, equal amounts of a 0.4 mg/mL collagen in 5 mM acetate buffer solution and a 200 mM Tris-HCl buffer solution prepared in advance were mixed in each of the above solutions and used. […]
# bile canaliculi = experiment: Bile acid assay (CLF) confirming formation of bile canaliculi in hepatotoxicity model; format: cell-based, Human; details: collagen 0.3 mg/mL, 6 days of culture
# Experimental: A hepatotoxicity model was produced according to the same method as in the method described in Test Examples 1 and 2. However, the collagen concentration was 0.3 mg/mL, and the heparin concentration was 0.05 mg/mL, 0.15 mg/mL, 0.5 mg/mL, or 5.0 mg/mL (all final concentrations).
# After 6 days of culture, the medium was replaced with 300 μL of a medium containing 5 μM CLF (FITC-labeled bile acid CORNING #451041) on which the following operation was performed (this assay was performed while cells were alive). After being left in the incubator for 20 min, the tissue was washed with PBS 5 times. The medium was replaced, and observation was performed under a fluorescence microscope.
# FIG. 6, FIG. 7, FIG. 8, and FIG. 9 show the results of fluorescence observation after a medium containing CLF was incubated for the hepatotoxicity models produced with different heparin concentrations. […] In each drawing, the scale bar indicates 500 μm. In normal live tissue in which bile canaliculi were favorably formed, it was thought that, since hepatocytes excreted bile acids taken up from the outside of the live tissue into the bile canaliculi, the intensity of fluorescence derived from FITC retained in the cells was low after the CLF treatment.
Substance,"aggregation of cells (PXB cells, SEC and LX2)","expression of MRP2 (fluorescence) (MRP2; versus control, FIG. 3)","aggregation of cells in hepatotoxicity model (MRP2; 0.2 mg/mL collagen, FIG. 3)",gelation of solution at room temperature [1],"expression intensity percentage of MRP2 (expression area percentage per area, image analysis) (MRP2; versus control, FIG. 5)","excretion of CLF taken into hepatocytes into the bile canaliculi (bile canaliculi; heparin 0.15, 0.5 or 5.0 mg/mL, 5 μM CLF 20 min, FIG. 7-9, (hydrochloride))","intensity of fluorescence derived from FITC retained in the cells with increasing heparin concentration (bile canaliculi; heparin concentration increased, 5 μM CLF)"
collagen,aggregation of cells was significantly promoted,expression of MRP2 tended to decrease significantly,cells tended to aggregate excessively,quickly gelled at room temperature,–,–,–
heparin (hydrochloride),–,fluorescence was enhanced as a whole compared to control conditions,–,did not gel at room temperature for a long time,higher expression intensity percentage of MRP2 than the control,CLF taken into hepatocytes was more efficiently excreted into the bile canaliculi; also recorded: CLF taken into hepatocytes was easily excreted into the bile canaliculi,the intensity of fluorescence derived from FITC retained in the cells decreased
